In patent US12653903B2, “Nanoparticle and use thereof for the combinatorial therapy of endoplasmic reticulum stress inducer and immunotherapeutic to tumors and immune cells” (National Yang Ming Chiao Tung University, priority 2023, dated 2026):

Tested on: Panc-02 cells
Details: concentration used as equivalent CB dose
Method: Panc-02 cells or NIT-cells were seeded in 96-well plates. Cells were treated with various miR or CB-loaded SLNs formulations. TCA was used to fix the cells after treatment. The wells were then stained with sulforhodamine B (SRB) and rapidly rinsed with acetic acid. Following air drying. Tris base was added to each well, and the plates were examined using an ELISA reader. Cell viability (%)=(The absorbance value of treated cells)(The absorbance value of untreated cells)×100

Which IC30 does the source give for `Cc1cc2c(C(N)=O)cccc2n1-c1nc2c(c(NCc3ccccc3)n1)COCC2` [CB, CB-5083] here?
Its IC30 is 210 nM.
